Measurements: patent US12649980B2, “Three-dimensional surface for protein and small molecule microarrays” (The Johns Hopkins University, priority 2019, dated 2026)

Tests used:
MCF-7 tumors = assay: MCF-7 breast cancer xenograft in NSG mice; format: in vivo
Description: Given that RgA inhibited multiple isoforms of GLUTs, including GLUT1, 3, and 4, it raised the question of whether animals could tolerate RgA. As breast cancer cell lines are more sensitive to RgA than other cell lines (FIG. 6A and Table 3), the anti-breast cancer activity of RgA in vivo was assessed. Two breast cancer cell lines were selected for the xenograft experiment-MCF-7, an ER+, HER2− line, and HCC1954, an ER−, HER2+ breast line. NSG mice bearing MCF-7 tumors were given daily vehicle or RgA at a dose of 2 mg/kg for […].
All animal studies were conducted in compliance with all relevant ethical regulations set forth by the Johns Hopkins University Animal Care and Use Committee (ACUC). Female mice aged 4-6 weeks and weighing 18-22 g were maintained in a pathogen-free facility at Johns Hopkins Medical Institutions and cared for according to National Institutes of Health guidelines and under a protocol approved by the Johns Hopkins University Animal Care Committee. For the xenograft experiment of MCF-7, 17β-estradiol pellets (0.72 mg per pellet, 60-day release, Innovative Research of America, FL) were implanted at 5 days prior to tumor cell injection. Approximately 5 million MCF-7 cells were implanted subcutaneously into NSG mice (n=6 per group, NSG, The Jackson Laboratory). For the xenograft experiment of HCC1954, approximately 2 million cells were implanted subcutaneously into athymic nude mice (n=6 per group, NCr-nu/nu, Charles River). After tumors became palpable, the mice bearing MCF-7 and HCC1954 tumors were treated with either vehicle (saline with 5% PEG400, 5% Tween80 and 5% DMSO) or RgA via intraperitoneal injection every day. The tumor volume was measured periodically using a Vernier caliper and calculated according to the modified ellipsoid formula: tumor volume (mm^3)=(short axis)^2×(long axis)×π/6. After 30 days of treatment, the mice were killed, and the tumor tissues were extracted and stored in 10% formalin solution for future use.

[1] = system: Jurkat T FKBP knock out cells; assay: [3H]-2DG uptake in Jurkat T FKBP12, FKBP51, FKBP52 knock out cells; format: cell-based, human; details: Jurkat T FKBP12, FKBP51, FKBP52 KO versus WT
Description: To further determine the dependence of RgA on endogenous FKBP, three major isoforms of FKBP, FKBP12, FKBP51 and FKBP52 were knocked out using CRISPR-Cas9 in Jurkat T cells. Guo et al., Nat. Chem. 2019, 11, 254-263. Unlike ENT1 inhibitor rapacodin, Guo et al., Nat.
The inhibitory activity of compounds on glucose transport was analyzed by measuring the cell uptake of [3H]-2DG as previously described. Ulanovskaya et al., Chem. Biol. 2011, 18, 222-230. Briefly, cells were washed twice and incubated in low-glucose medium for 10 min. Cells were added drugs and incubated for another 10 min before adding [3H]-2DG. After 10 min incubation with [3H]-2DG, cells were washed twice and lysed with 0.2 N NaOH plus 0.2% SDS. The cell lysate was transferred to a new tube containing 1 mL of optiphase supermix. Glucose uptake was quantified with a scintillation counter.

GLUT1 = molecular target: T1, GLUT1 (Homo sapiens, UniProt P11166); assay: rapafucin 2D microarray screen with GLUT1-containing cell lysate; format: binding; details: signal-to-background ratio, 2D surface, same lysate and conditions
T1 construct: The full-length human SLC2A1, SLC2A3, and SLC2A4 genes were PCR amplified and inserted into pLenti6M vector 2; expressed in transfected cells
T1 sequence (P11166 1-492): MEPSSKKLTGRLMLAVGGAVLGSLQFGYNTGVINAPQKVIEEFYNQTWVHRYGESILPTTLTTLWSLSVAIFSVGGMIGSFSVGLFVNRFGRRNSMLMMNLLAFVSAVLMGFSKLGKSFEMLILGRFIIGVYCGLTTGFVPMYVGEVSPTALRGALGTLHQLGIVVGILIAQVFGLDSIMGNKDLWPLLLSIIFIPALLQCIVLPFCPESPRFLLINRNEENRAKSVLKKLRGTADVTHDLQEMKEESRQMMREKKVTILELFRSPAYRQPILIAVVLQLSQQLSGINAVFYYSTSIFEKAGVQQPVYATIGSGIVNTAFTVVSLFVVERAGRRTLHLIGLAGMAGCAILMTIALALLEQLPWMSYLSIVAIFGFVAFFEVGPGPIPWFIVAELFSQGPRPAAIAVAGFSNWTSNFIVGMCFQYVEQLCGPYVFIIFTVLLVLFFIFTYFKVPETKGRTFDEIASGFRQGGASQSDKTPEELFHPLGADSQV
Source text: Once stock solutions of the rapafucin library were arrayed on the 2D or 3D surface and most of solvent carrier was evaporated, the crosslinking reaction was initiated by irradiating the surfaces with 365-nm wavelength UV light. Kawatani and Osada, Medchemcomm 2014, 5, 277-287. […] To screen for GLUT1-interacting rapafucins, GLUT1 was stably overexpressed in HEK293T cells and generated cell lysates containing detergent-solubilized recombinant GLUT1 (FIG. 10). The GLUT1-containing cell lysate was then incubated on both 2D and 3D rapafucin microarrays. After washing the slides to remove unbound proteins, the bound GLUT1 protein was detected with anti-GLUT1 antibodies, followed by visualization with Cy5-labeled secondary antibodies using a microarray scanner. Rapafucins were scored as positive hits when the corresponding SBR was greater than 3. Based on this criterion, a total of 17 rapafucin hits and one positive control BAY-876, a specific GLUT1 inhibitor, Siebeneicher et al., ChemMedChem 2016, 11, 2261-2271, were identified on the 3D rapafucin microarray. In contrast, only one hit (WL13-F11, also among the 17 hits identified from the 3D rapafucin microarray) was identified on the 2D rapafucin microarray (Table 1, FIG. 11).
In the optimization experiments, the slides were incubated with 50 nM purified recombinant FKBP12 for 1 hour, while in the GLUT1 screening, 10 mg/mL of cell lysate containing DDM-solubilized GLUT1 from GLUT1 overexpressed HEK293T was incubated for 1 hour. Successively, primary antibody and CY5 labeled secondary antibody were added for 1 hour. The chips were washed in buffer A for 5 mins 3 times after the sample and antibodies incubation. After centrifugation, the dried chips were scanned by a microarray scanner (Genepix, US) at 635-nm wavelength. The final result was analyzed by GenePix software.

2D SBR (GLUT1): <3.0
SMILES: CCC(C)C1C(=O)NCC(=O)N(C)CCC=CC(=O)OCC(C)(C)C(=O)C(=O)N2CCCCC2C(=O)OC(CCc2ccc(OC)c(OC)c2)c2cccc(c2)NC(=O)CCC(=O)N(C)C(CC(C)C)C(=O)NC(Cc2ccccc2)C(=O)N1C (centres unmarked) [JW11-D2, Rapaglutin A]
tumor weight (MCF-7 tumors; MCF-7 in NSG mice, 2 mg/kg daily, vehicle 454 mg): 285 mg
tumor volume index on day 38 (MCF-7 tumors; MCF-7 in NSG mice, 2 mg/kg intraperitoneally daily, vehicle 2.84): 1.70
weight loss and signs of adverse effects (MCF-7 tumors; MCF-7 xenograft mice, 2 mg/kg daily): no significant weight loss or any signs of adverse effects
effect of knockout of three FKBP isoforms on sensitivity of cells [1]: negligible effects
